Laboratory results from patent publication US8222257B2, “Phosphono-pent-2-en-1-yl nucleosides and analogs” (The Regents of the University of California, priority 2005, dated 2012).
Where two headings read alike, the source gives them in different places.

Assays:
HSV-1 = assay type: cell-based; settings: Human alphaherpesvirus 1, MRC5, DNA reduction assay in MRC-5 cells
HIV-tLal = assay type: cell-based; settings: Human immunodeficiency virus 1, MT2, read-out: HIV-1 EC50
VZV = VZV CPE assay in HFF cells; assay type: cell-based; settings: Human alphaherpesvirus 3
EBV = EBV Elisa assay in Daudi cells; assay type: cell-based; settings: human gammaherpesvirus 4, Daudi, read-out: EBV EC50
Wild Type HBV = assay: HBV replicative intermediates in vitro, wild type HBV; settings: Hepatitis B virus, read-out: EC50 for intracellular HBV replicative intermediates (HBV R.I.), Wild Type
in vitro [1] = assay: in vitro
in vitro [2] = assay: in vitro; remark: listed apart in the source
HCMV = assay: Antiviral activity against human CMV in vitro; settings: for EC50: Human betaherpesvirus 5, read-out: EC50 HCMV; for EC90: Human betaherpesvirus 5, read-out: EC90 HCMV
MCMV = assay: Antiviral activity against murine CMV in vitro; settings: in Mus musculus; for EC50: read-out: EC50 MCMV; for EC90: read-out: EC90 MCMV
[3] = Hepatitis B virus, read-out: HBV EC50, DNA reduction assay in 2.2.15 cells
[4] = read-out: HBV EC50, DNA reduction assay in 2.2.15 cells

SMILES	EC50 (HSV-1) [µM]	EC50 (HIV-tLal) [µM]	EC50 (VZV) [µM]	EC50 (HBV; [3]) [µM]	other results
CCCCCCCCCCCCCCCCOCCCOP(=O)(O)CC/C=C\Cn1cnc2c(N)ncnc21 [HDP-PPen-A]	17.7	> 10	> 60	1.1	EC50 (EBV): 0.1 µM; EC50 (HBV; [4]): 2 µM; EC50 (Wild Type HBV): 9.2 µM
CCCCCCCC/C=C\CCCCCCCCOCCOP(=O)(O)CC/C=C\Cn1cnc2c(=O)[nH]c(N)nc21 [OLE-PPen-G, (Z)-2-(octadec-9-enyloxy)ethyl hydrogen 5-(2-amino-6-oxo-1,6-dihydropurin-9-yl)pent-3-enylphosphonate]	0.68	–	–	–	CC50 (in vitro [1]): > 1 µM; CC50 (in vitro [2]): > 1 µM; EC50 (HCMV): 0.47 µM; EC90 (HCMV): 0.89 µM; EC50 (MCMV): 0.028 µM; EC90 (MCMV): 0.12 µM
CCCCCCCCCCCCCCCCOCCCOP(=O)(O)CC/C=C\Cn1ccc(=O)[nH]c1=O [HDP-PPen-U, (3Z)-3-(hexadecyloxy)propyl hydrogen 5-(3,4-dihydro-2,4-dioxopyrimidin-1(2H)-yl)pent-3-enylphosphonate]	> 30	> 10	–	> 30	–
CCCCCCCCCCCCCCCCCCOCCOP(=O)(O)CC/C=C\Cn1cnc2c(=O)[nH]c(N)nc21 [ODE-PPen-G, (Z)-2-(octadecyloxy)ethyl hydrogen 5-(2-amino-6-oxo-1,6-dihydropurin-9-yl)pent-3-enylphosphonate]	4.6	–	–	–	EC50 (HCMV): 0.17 µM; EC90 (HCMV): 0.81 µM; EC50 (MCMV): 0.004 µM; EC90 (MCMV): 0.03 µM
CCCCCCCCCCCCCCCCOCCCOP(=O)(O)CC/C=C\Cn1ccc(N)nc1=O [HDP-PPen-C, (3Z)-3-(hexadecyloxy)propyl hydrogen 5-(4-amino-2-oxopyrimidin-1(2H)-yl)pent-3-enylphosphonate]	4.7	2.5	–	–	–
Nc1ncnc2c1ncn2CC=CCCP(=O)(O)O [PPen-A, 9-(5-Phosphono-pent-2-en-1-yl)-adenine]	> 30	> 100	> 300	> 30	EC50 (EBV): > 4 µM
Nc1nc2c(ncn2CC=CCCP(=O)(O)O)c(=O)[nH]1 [PPen-G, 9-(5-Phosphono-pent-2-en-1-yl)-guanine]	> 30	> 100	7.2	> 30	–
CCCCCCCCCCCCCCCCOCCCOP(=O)(O)CC/C=C\Cn1cc(C)c(=O)[nH]c1=O [HDP-PPen-T]	0.9	1	–	–	–
O=c1ccn(CC=CCCP(=O)(O)O)c(=O)[nH]1 [PPen-U, 1-(5-Phosphono-pent-2-en-1-yl)-uracil]	> 30	> 100	> 300	> 30	–
CCCCCCCCCCCCCCCCOCCCOP(=O)(O)CC/C=C\Cn1cnc2c(=O)[nH]c(N)nc21 [HDP-PPen-G, (Z)-3-(hexadecyloxy)propyl hydrogen 5-(2-amino-6-oxo-1,6-dihydropurin-9-yl)pent-3-enylphosphonate]	–	> 10	0.15	2.4	EC50 (EBV): 48 µM; EC50 (HBV; [4]): 2.5 µM; EC50 (Wild Type HBV): 8.8 µM
Cc1cn(CC=CCCP(=O)(O)O)c(=O)[nH]c1=O [PPen-T, 1-(5-Phosphono-pent-2-en-1-yl)-thymine]	> 30	> 100	> 300	> 30	–
Nc1ccn(CC=CCCP(=O)(O)O)c(=O)n1 [PPen-C, 1-(5-Phosphono-pent-2-en-1-yl)cytosine]	> 30	> 100	> 60	> 30	–
